Legend:
[1] = test system: reward/aversion circuitry (GOb, NAc, SLEA, amygdala, VT); assay: Unblinded low-dose morphine vs saline infusion fMRI in drug-naive healthy volunteers; format: in vivo, human
Text: Error bars are included for the MRI data acquired as the 20′ time-point, the 70′ time-point, the 150′ time-point, and the 250′ time-point. Time is represented in seconds using a conversion of repetition time (TR)=6 RR intervals=6 seconds. […] (Table II)

NAc brain region = conditions: 4 mg/70 kg, noxious heat 46° C.
Experimental: The saline is administered using conventional intravenous techniques. The thermal stimulus is delivered to a subject using a Peltier based thermode. The size of the activations shown in FIG. 10A indicate the relative extent within each region. The size of the region corresponds to the amount of activation in a volume in the NAc. Thus, a relatively small size corresponds to a relatively low activation volume in the NAc while a relatively large size corresponds to a relatively large activation volume in the NAc.
The thermal pulse 794 is provided having a pulse duration typically of about thirty seconds followed by a resting period 792b having a duration typically of about thirty seconds and during which time a neutral temperature is applied to the subject. […] In one experiment, the first temperature (i.e. the neutral temperature) corresponds to a temperature typically of about 35° C. and the second temperature (i.e. the painful temperature) corresponds to a temperature typically of about 46° C. Thus, pulses 792 and 794 in FIG. 10B vary from a temperature typically of about 35° C. to a temperature typically of about 46° C. […]

[2] = test system: reward/aversion circuitry (GOb, NAc); assay: Cocaine expectancy fMRI (prior to/shortly after infusion, before pharmacological effects); format: in vivo, human; conditions: right hemisphere
Text: Also, drug expectancy effects can be observed prior to the infusion of cocaine vs. saline. […] These effects result from probability assessments regarding the potential of receiving a drug reward (i.e. a previously experienced reward).

[3] = test system: reward/aversion circuitry (GOb, NAc, SLEA, amygdala, VT); assay: Double-blind cocaine vs saline infusion fMRI in cocaine addicts (Table II Cocaine (1)); conditions: Outcomes, right hemisphere
[4] = test system: aCG and NAc brain regions; assay: fMRI of 41° C. stimulus in subject sensitized to heat by capsaicin (hyperalgesia, Pain 2); format: in vivo, human
Experimental: Referring now to FIG. 8A, an image of an anterior cingulate gyrus (aCG) having an activation 750 in response to a 41° C. thermal stimulus is shown. […] It should be appreciated of course that any thermal mechanical, chemical device can be used to produce pain. […] Referring now to FIG. 8C, an image of aNAc region 760 in response to a 41° C. thermal stimulus is shown. […] The size and color of the activations shown in FIG. 8C indicate the relative activation and statistical significance respectively within each region.

[5] = Heat/capsaicin sensitization model on the face: VAS pain ratings; format: in vivo, human; conditions: 11 point VAS 0-10
Experimental: (§1) In one experiment, the following paradigm was used. First allodynia was induced by application of heat in the form of a heat probe as described above to portions of the face of a subject. The heat was applied at a temperature of 44° C. for time period of 5 minutes. Next, a 0.075% capsaicin cream was applied for 20 minutes in the same facial area where the heat probe had been. The capsaicin cream was modified following the method described in “A new human experimental pain model: the heat/capsaicin sensitization model,” Petersen and Rowbotham, Neuroreport. 1999; 10(7):1511-6. Allodynia was produced by the application of normally non-noxious brush and 41 ° C. stimuli to the right (R) and left (L) V2 division of the trigeminal node.
For the 5 minute thermal application, the capsaicin application and the pain induced by normally non-noxious mechanical and thermal stimuli to the right or left V2 region, the subjects rated the intensity of the pain they experienced using a conventional on-line VAS rating scheme (i.e. an 11 point visual analogue scale 0-10; where 0=no pain and 10=maximum pain). The subjects rated the 5 minute thermal application and the capsaicin application on the V2R as approximately 5 and 2.5, respectively, on the VAS rating scale. The application of the brush to the V2R region was rated as a 2.5 on the VAS scale and the brush to the V2L region (i.e. the untreated V2 region) produced no pain. Also, application of the 41° C. probe to the V2R region was rated as approximately 9 on the VAS scale while application of the 41° C. probe to the V2L region was rated as approximately 1 on the VAS scale.

[6] = test system: brainstem region spV and thalamus; assay: Heat/capsaicin sensitization model on the face: fMRI of spV and thalamus; format: in vivo, human
Experimental: Referring now to FIG. 13, surrogate models of sensitization are explained. Activation in the spV and thalamus following allodynia produced by a heat-capsaicin model in a healthy volunteer are, together, different than in acute pain.
as §1
Curve 1306 represents a zero baseline signal. Curve 1300 is plotted as percent signal change vs. time (seconds).
Referring now to FIG. 13A, a curve 1310 representing the response of the thalamus to a series of brush strokes of an example of pain 2 is shown. Curve 1312 represents a zero baseline signal. The brush strokes are applied during time periods designated 1314a, 1314b.

VT/PAG brain region = assay: fMRI of VT/PAG during intravenous naloxone infusion; format: in vivo, human; conditions: naloxone 4 mg/70 kg i.v., infusion period vs preinfusion
Experimental: Referring to FIGS. 10E and 10F, central nervous system (CNS) activity in reward/aversive regions is shown in response to an infusion of naloxone (in a dose of 4 mg/70 kg) in a subject.
Referring now to FIG. 10E, the VT/PAG (combined left and right components in region 820) having an activation 820 in response to an infusion of naloxone in a subject. The size and shade of the region 420a indicates the extent of activation and statistical significance respectively within the region. […] In region 820, a darker shade of gray indicates a less significant activation while a region indicated by a lighter shade of gray indicates a more significant activation.
The period 822a has a duration typically of about five minutes followed by the infusion period 822b having a duration typically of about five minutes.
The response is represented by curve 828 showing preinfusion (white background) and post-infusion (stippled background) time points.
As is known, the VT/PAG is part of the reward/aversion circuitry in the brain and since infusion of naloxone elicits a corresponding decrease (as measured by percentage signal change) in the VT/PAG response, the VT/PAG is said to be negatively valenced with respect to a drug that affects pain function, and analgesic responses to pain.

[7] = Outcomes, Morphine, right hemisphere

CN1CC[C@]23c4c5ccc(O)c4O[C@H]2[C@@H](O)C=C[C@H]3[C@H]1C5 [morphine]
Activation, Gob R [1, 7]: (X) | Activation, NAc R [1, 7]: X^3 | Activation, SLEA R [1, 7]: X^2 | Laterality of NAc signal changes ([1]; averaged time-course, right and left NAc, morphine vs saline): bilateral NAc changes | Valence of NAc signal ([1]; drug reward): positively valenced signal | Activation of reward regions such as the NAc ([1]; low dose morphine, healthy volunteers): activation | Subjective effect ([1]; very low doses of morphine): mild euphoria | Analgesic effect determined from NAc activation (NAc brain region): attenuates pain

COC(=O)[C@H]1[C@@H](OC(=O)c2ccccc2)C[C@@H]2CC[C@H]1N2C [cocaine]
Activation, Gob R [2]: X^2 | Activation, Amygdala R [3]: (X) | Activation, SLEA R [3]: (X)

COc1cc(CNC(=O)CCCC/C=C/C(C)C)ccc1O [capsaicin]
NAc signal change to thermal pulse [4]: negative percentage change | aCG signal change to thermal pulse [4]: positive percentage change | Pain intensity rating of the capsaicin application ([5]; 0.075% capsaicin cream 20 minutes on V2R): ~2.5 | Pain intensity rating of 41° C. probe on treated region ([5]; 41° C. probe to V2R after heat/capsaicin): approximately 9 | Pain intensity rating of brush on treated region ([5]; brush to V2R after heat/capsaicin): 2.5 | Ipsilateral spV activation ([6]; 41° C. thermal probe to V2 skin treated with capsaicin): activation in the ipsilateral spV was observed | Contralateral thalamus signal change ([6]; brush induced allodynia, heat-capsaicin model, p<0.01 t-test): decrease in signal

C=CCN1CC[C@]23c4c5ccc(O)c4O[C@H]2C(=O)CC[C@@]3(O)[C@H]1C5 [naloxone]
VT/PAG signal change during infusion (VT/PAG brain region): negative percent change

From patent publication US6907280B2, “Method and apparatus for objectively measuring pain, pain treatment and other related techniques” (The General Hospital Corporation, priority 1999, dated 2005)
